This note sets out measurements from patent US20230151003A1, “COMPOUNDS AND METHODS OF USE” (Exelixis, Inc., priority 2020, published 2023).

The structures appear in SMILES notation.

Holding throughout (assay type): cell-based
The target in one experiment is T1, Mer (Homo sapiens, UniProt Q12866).
T1 construct: host or cells: 293A cells (Thermo Fisher #R70507)
T1 sequence (Q12866 21-999): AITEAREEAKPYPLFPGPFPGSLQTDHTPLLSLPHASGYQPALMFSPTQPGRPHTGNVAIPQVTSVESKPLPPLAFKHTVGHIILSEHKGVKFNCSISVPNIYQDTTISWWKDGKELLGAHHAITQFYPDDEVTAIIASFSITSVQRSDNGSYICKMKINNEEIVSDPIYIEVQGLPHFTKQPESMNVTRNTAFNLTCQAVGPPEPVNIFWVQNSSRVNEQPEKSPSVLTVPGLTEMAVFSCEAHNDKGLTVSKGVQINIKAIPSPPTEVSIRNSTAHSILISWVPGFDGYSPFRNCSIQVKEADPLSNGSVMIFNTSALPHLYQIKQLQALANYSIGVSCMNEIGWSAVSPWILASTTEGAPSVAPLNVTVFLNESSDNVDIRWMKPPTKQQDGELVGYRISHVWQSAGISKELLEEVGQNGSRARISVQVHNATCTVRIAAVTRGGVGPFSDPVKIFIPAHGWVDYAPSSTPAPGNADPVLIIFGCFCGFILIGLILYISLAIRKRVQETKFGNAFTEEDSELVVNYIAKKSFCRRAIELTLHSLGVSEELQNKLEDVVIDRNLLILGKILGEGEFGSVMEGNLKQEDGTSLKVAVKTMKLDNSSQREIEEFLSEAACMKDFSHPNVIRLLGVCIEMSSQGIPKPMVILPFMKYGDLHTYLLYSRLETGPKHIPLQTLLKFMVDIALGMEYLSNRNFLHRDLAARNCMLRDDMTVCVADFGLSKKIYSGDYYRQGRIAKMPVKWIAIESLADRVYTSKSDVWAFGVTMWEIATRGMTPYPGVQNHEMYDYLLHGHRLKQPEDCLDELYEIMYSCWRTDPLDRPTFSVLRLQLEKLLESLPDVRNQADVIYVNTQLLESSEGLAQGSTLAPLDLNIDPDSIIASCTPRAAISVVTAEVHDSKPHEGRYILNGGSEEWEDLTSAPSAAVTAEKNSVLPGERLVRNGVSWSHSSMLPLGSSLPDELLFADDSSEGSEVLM
Put plainly: Mer autophosphorylation ELISA in transient transfected 293A cells. To be noted: Table 3 Cellular Activities; MERTK-transfected 293A cells, phospho-Mer ELISA. The procedure: 293A cells (Thermo Fisher #R70507) were seeded at 1.5×10^6 cells/well onto 100 mm dish (Greiner #664169), in DMEM (Thermo Fisher #11995-040) containing 10% FBS (Thermo Fisher #26140-079), 1% MEM NEAA (Thermo Fisher #11140-050), 1% GlutaMax (Thermo Fisher #35050-061), and 1% Penicillin Streptomycin (Thermo Fisher #15140-122). 293A cells were incubated at 37° C., 5% CO2 for 24 h and then transfected with 6μg MERTK DNA (Genecopoeia #EX-Z8208-M02) using TransIT LT1 transfection reagent (Mirus-Bio #MIR2305). After 24 h incubation, the transfected 293A cells were seeded at 1×10^5 cells/well onto 96-well plates (Corning #3904) in DMEM growth medium overnight. Test compounds were serially diluted to produce an 8-point dose curve in fresh serum-free medium to a final concentration of 0.3% DMSO (vehicle) and added to the cells and incubated for 1 h. Cells were then immediately lysed with 150 μL of cold 1× lysis buffer […], 137 mM sodium chloride, 2 mM EDTA, 10% glycerol, 1% NP-40 alternative, 1 mM activated sodium orthovanadate, 1 mM PefaBloc SC (Sigma-Aldrich #11429868001), protease/phosphatase inhibitor tablet (Thermo Fisher #A32959)]. Lysates were clarified by centrifugation and 50 μL/well added into the human phospho-Mer DuoSet IC ELISA (R&D Systems #DYC2579-2). Assay was performed according to manufacturer's instructions and sample phospho-Mer concentrations were extrapolated using human phospho-Mer control (R&D Systems #841793) as a standard. Positive control wells (100% activity) contained DMSO-treated cell lysates. Negative control wells (0% activity) contained reference inhibitor-treated cell lysates. IC50 values were calculated by nonlinear regression analysis using a 4-parameter logistic curve fit in ActivityBase XE (IDBS).
(In general: In an ELISA, binding on a coated surface is turned into a signal by an enzyme label.)

For a further experiment, the target named is KDR (Homo sapiens, UniProt P35968). Put plainly: KDR autophosphorylation ELISA in HUVEC cells. On the set-up: endogenous in cells; host or cells: HUVEC (Lonza #C2519A). To be noted: Table 3 Cellular Activities, VEGF165-stimulated, phospho-KDR ELISA. The procedure:
Human umbilical vein endothelial cells or HUVEC (Lonza #C2519A) were seeded at 2×10^4 cells/well onto 96-well plates (Corning #3904), in EGM-2 growth medium (Lonza #CC-3162) containing 1% Penicillin Streptomycin (Thermo Fisher #15140-122). HUVEC cells were incubated at 37° C., 5% CO2 for 24 h and then starved for 24 h in serum-free EBM-2 basal medium (Lonza #CC-3156) containing 1% Penicillin Streptomycin. Test compounds were serially diluted to produce an 8-point dose curve in fresh serum-free medium to a final concentration of 0.3% DMSO (vehicle) and added to the cells and incubated for 1 h. Cells were then stimulated with 100 ng/mL recombinant human VEGF165 (R&D Systems #293-VE-500) for 5 min, washed with cold PBS, and immediately lysed with 130 μL of cold 1× lysis buffer [20 mM Tris, 137 mM sodium chloride, 2 mM EDTA, 10% glycerol, 1% NP-40 alternative, 1 mM activated sodium orthovanadate, 1 mM PefaBloc SC (Sigma-Aldrich #11429868001), protease/phosphatase inhibitor tablet (Thermo Fisher #A32959)]. Lysates were collected and 100 μL/well added into the human phospho-KDR DuoSet IC ELISA (R&D Systems #DYC1766-2). Assay was performed according to manufacturer's instructions and sample phospho-KDR concentrations were extrapolated using human phospho-KDR control (R&D Systems #841421) as a standard. Positive control wells (100% activity) contained VEGF165-stimulated, DMSO-treated cell lysates. Negative control wells (0% activity) contained non-stimulated cell lysates. IC50 values were calculated by nonlinear regression analysis using a 4-parameter logistic curve fit in ActivityBase XE (IDBS).

The target in the next experiment is Met (Homo sapiens, UniProt P08581). Put plainly: Met autophosphorylation ELISA in PC-3 cells. The arrangement: endogenous in cells; host or cells: PC-3 prostate cancer cells (ATCC #CRL-1435). To be noted: Table 3 Cellular Activities, HGF-stimulated, phospho-Met ELISA, read-out: c-Met IC50. The procedure:
PC-3 prostate cancer cells (ATCC #CRL-1435) were seeded at 4×10^4 cells/well onto 24-well plates (Greiner #662165), in DMEM (Thermo Fisher #11995-040) containing 10% FBS (Thermo Fisher #26140-079), 1% MEM NEAA (Thermo Fisher #11140-050), 1% GlutaMax (Thermo Fisher #35050-061), and 1% Penicillin Streptomycin (Thermo Fisher #15140-122). PC-3 cells were incubated at 37° C., 5% CO2 for 24 h and then starved for 3 h in serum-free medium. Test compounds were serially diluted to produce an 8-point dose curve in fresh serum-free medium to a final concentration of 0.3% DMSO (vehicle) and added to the cells and incubated for 1 h. Cells were then stimulated with 100 ng/mL recombinant human HGF (R&D Systems #294-HG-250) for 10 min, washed with cold PBS, and immediately lysed with 130 μL of cold 1× lysis buffer [20 mM Tris, 137 mM sodium chloride, 2 mM EDTA, 10% glycerol, 1% NP-40 alternative, 1 mM activated sodium orthovanadate, 1 mM PefaBloc SC (Sigma-Aldrich #11429868001), protease/phosphatase inhibitor tablet (Thermo Fisher #A32959)]. Lysates were clarified by centrifugation and 100 μL/well added into the PathScan phospho-Met (panTyr) Sandwich ELISA (Cell Signaling Technology #7333). Assay was performed according to manufacturer's instructions. Positive control wells (100% activity) contained HGF-stimulated, DMSO-treated cell lysates. Negative control wells (0% activity) contained HGF-stimulated, reference inhibitor-treated cell lysates. IC50 values were calculated by nonlinear regression analysis using a 4-parameter logistic curve fit in ActivityBase XE (IDBS).

Met, sequence (P08581 25-1390): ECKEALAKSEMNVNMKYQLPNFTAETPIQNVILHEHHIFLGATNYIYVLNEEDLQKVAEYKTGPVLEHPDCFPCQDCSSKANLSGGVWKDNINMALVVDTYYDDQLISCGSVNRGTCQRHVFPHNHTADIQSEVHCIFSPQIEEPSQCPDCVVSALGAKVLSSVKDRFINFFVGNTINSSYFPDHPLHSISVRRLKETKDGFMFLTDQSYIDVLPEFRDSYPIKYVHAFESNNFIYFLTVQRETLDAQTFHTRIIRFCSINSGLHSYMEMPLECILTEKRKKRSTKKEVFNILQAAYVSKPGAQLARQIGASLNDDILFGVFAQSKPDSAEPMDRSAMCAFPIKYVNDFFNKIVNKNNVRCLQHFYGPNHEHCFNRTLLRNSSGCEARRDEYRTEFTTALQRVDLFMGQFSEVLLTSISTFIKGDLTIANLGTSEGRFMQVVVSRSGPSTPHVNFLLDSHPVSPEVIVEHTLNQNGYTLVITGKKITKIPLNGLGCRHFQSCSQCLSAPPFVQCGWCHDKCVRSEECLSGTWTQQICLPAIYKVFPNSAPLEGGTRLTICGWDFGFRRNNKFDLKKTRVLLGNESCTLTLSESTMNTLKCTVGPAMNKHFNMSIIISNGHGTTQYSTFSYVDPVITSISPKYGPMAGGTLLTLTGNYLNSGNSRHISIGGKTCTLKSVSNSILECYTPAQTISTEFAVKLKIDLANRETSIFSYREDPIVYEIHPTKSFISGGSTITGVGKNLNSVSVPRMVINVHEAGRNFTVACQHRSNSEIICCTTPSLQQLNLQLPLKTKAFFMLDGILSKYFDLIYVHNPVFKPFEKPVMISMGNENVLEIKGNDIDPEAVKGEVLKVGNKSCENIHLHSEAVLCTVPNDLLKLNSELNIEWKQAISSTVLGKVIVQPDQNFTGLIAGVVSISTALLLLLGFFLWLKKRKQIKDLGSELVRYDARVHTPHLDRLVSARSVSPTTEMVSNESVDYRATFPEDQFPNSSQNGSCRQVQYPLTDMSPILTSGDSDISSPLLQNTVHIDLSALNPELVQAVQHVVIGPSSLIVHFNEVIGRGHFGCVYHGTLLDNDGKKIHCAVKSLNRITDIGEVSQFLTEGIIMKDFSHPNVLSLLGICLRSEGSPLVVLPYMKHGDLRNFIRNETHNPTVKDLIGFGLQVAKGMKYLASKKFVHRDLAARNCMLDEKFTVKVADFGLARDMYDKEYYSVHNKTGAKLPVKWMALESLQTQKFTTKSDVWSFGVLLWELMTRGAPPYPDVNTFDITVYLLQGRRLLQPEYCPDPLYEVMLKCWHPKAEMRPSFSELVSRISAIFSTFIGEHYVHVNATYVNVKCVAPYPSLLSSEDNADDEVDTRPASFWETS
KDR, sequence (P35968 20-1356): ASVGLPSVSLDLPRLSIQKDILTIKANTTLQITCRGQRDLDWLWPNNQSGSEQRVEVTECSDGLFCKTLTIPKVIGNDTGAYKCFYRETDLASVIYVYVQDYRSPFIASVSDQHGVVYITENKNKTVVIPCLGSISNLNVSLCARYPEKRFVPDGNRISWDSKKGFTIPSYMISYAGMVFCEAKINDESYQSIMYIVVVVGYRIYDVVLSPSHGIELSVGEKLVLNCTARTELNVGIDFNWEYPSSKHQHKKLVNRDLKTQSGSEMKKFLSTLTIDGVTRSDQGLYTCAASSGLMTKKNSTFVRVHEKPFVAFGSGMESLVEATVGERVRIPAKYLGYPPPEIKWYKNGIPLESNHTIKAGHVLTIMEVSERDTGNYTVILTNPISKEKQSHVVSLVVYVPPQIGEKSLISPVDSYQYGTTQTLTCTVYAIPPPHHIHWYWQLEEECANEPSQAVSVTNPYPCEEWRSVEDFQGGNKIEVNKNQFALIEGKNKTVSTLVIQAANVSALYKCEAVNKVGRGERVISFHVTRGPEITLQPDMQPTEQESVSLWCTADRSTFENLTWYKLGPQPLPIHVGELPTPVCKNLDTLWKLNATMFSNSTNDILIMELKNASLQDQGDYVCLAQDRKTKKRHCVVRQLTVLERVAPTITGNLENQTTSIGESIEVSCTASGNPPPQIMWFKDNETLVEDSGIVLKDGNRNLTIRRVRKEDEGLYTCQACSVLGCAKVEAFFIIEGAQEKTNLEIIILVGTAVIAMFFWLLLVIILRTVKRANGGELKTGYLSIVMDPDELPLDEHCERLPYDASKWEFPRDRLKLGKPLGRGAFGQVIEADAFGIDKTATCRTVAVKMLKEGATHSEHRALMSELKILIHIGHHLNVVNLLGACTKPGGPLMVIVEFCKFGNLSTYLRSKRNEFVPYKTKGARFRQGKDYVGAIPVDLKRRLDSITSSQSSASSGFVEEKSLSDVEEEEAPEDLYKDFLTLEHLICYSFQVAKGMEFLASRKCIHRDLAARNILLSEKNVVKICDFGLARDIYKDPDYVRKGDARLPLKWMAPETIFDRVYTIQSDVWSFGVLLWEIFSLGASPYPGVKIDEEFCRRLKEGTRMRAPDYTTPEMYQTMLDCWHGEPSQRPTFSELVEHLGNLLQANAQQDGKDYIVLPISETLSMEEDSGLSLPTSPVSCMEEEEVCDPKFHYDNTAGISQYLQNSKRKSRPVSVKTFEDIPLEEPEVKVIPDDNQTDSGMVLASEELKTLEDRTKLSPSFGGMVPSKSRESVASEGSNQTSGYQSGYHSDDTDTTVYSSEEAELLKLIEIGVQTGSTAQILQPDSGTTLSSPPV

On to `COc1cc2nccc(Oc3ccc(NC(=O)c4c(C)n(CC(F)F)cc(-c5ccco5)c4=O)cc3F)c2nc1OC` [Compound 275, 1-(2,2-Difluoroethyl)-N-[4-[(6,7-dimethoxy-1,5-naphthyridin-4-yl)oxy]-3-fluorophenyl]-5-(furan-2-yl)-2-methyl-4-oxopyridine-3-carboxamide], for which the 50% inhibitory concentration (IC50) against Mer is no more than 100 nM; at KDR, 300 to 1000 nM; on Met, no more than 100 nM.
With `COc1cc2nccc(Oc3ccc(NC(=O)c4c5n(cc(-c6ccsc6)c4=O)CCOC5)cc3F)c2nc1OC` [Compound 300, N-[4-[(6,7-Dimethoxy-1,5-naphthyridin-4-yl)oxy]-3-fluorophenyl]-8-oxo-7-thiophen-3-yl-3,4-dihydro-1H-pyrido[2,1-c][1,4]oxazine-9-carboxamide], the results for the IC50 against Mer, at KDR and at Met were no more than 100 nM, 100 to 300 nM and no more than 100 nM, respectively.
In the case of `COc1cc2nccc(Oc3ccc(NC(=O)c4c5n(cc(-c6ccsc6)c4=O)CCOC5)cc3)c2nc1OC` [Compound 301, N-[4-[(6,7-Dimethoxy-1,5-naphthyridin-4-yl)oxy]phenyl]-8-oxo-7-thiophen-3-yl-3,4-dihydro-1H-pyrido[2,1-c][1,4]oxazine-9-carboxamide], the half-maximal inhibitory concentration (IC50) is no more than 100 nM on Mer, 300 to 1000 nM against KDR and no more than 100 nM on Met.
With `COc1cc2nccc(Oc3ccc(NC(=O)c4c5n(c(C)c(-c6ccoc6)c4=O)CCOC5)cc3F)c2nc1OC` [Compound 308, N-[4-[(6,7-Dimethoxy-1,5-naphthyridin-4-yl)oxy]-3-fluorophenyl]-7-(furan-3-yl)-6-methyl-8-oxo-3,4-dihydro-1H-pyrido [2,1-c][1,4]oxazine-9-carboxamide], the IC50 against Mer was no more than 100 nM; against KDR, 300 to 1000 nM; at Met, no more than 100 nM.
As for `CCc1c(C(=O)Nc2ccc(Oc3ccnc4cc(OC)c(OC)nc34)cc2)c(=O)c(-c2ccco2)c(C)n1C` [Compound 325, N-[4-[(6,7-Dimethoxy-1,5-naphthyridin-4-yl)oxy]phenyl]-2-ethyl-5-(furan-2-yl)-1,6-dimethyl-4-oxopyridine-3-carboxamide], the 50% inhibitory concentration (IC50) was no more than 100 nM against Mer, 300 to 1000 nM at KDR and 300 to 1000 nM on Met.
Regarding `CCc1c(C(=O)Nc2ccc(Oc3ccnc4cc(OCCOC)c(OC)nc34)c(F)c2)c(=O)c(-c2ccco2)c(C)n1C` [Compound 326, 2-Ethyl-N-[3-fluoro-4-[[6-methoxy-7-(2-methoxyethoxy)-1,5-naphthyridin-4-yl]oxy]phenyl]-5-(furan-2-yl)-1,6-dimethyl-4-oxopyridine-3-carboxamide], the IC50 on Mer, against KDR and at Met was no more than 100 nM in each case.

What is called IC50 is the concentration that gives 50% inhibition.
